We go through 35 compounds from US12187720B2, “Compounds for treatment of cancer” (ONCTERNAL THERAPEUTICS, INC., priority 2010, dated 2025).

The first experiment relates to DU 145. The experiment in a line: SRB cytotoxicity assay, DU 145 prostate cancer cells. Format: cell-based. The conditions noted are these: Homo sapiens, Table 6A, read-out: IC50 DU 145. An excerpt:
(§1) Cells were stained with SRB solution.
Background: The SRB assay estimates cell density from bound dye.
In the case of `Cc1ccc(-c2nc(C(=O)c3ccc(F)cc3)cs2)cc1` [compound 11], the IC50 was roughly 10 µM.

In the next experiment the test system is PC-3. The experiment in a line: SRB cytotoxicity assay, PC-3 prostate cancer cells. Format: cell-based, human. The conditions noted are these: Homo sapiens, PC-3; Table 13A; read-out: inhibitory effects PC3.
Excerpt: as §1
Turning to `COc1cc(C(=O)c2nc(-c3ccccc3)c[nH]2)cc(OC)c1OC` [70a, (4-phenyl-1H-imidazol-2-yl)(3,4,5-trimethoxyphenyl)methanone], the IC50 came out at 0.014 µM.
Turning to `COc1cc(C(=O)c2nc(-c3ccccc3)cn2C)cc(OC)c1OC` [70m, (1-methyl-4-phenyl-1H-imidazol-2-yl)(3,4,5-trimethoxyphenyl)methanone], the IC50 turned out to be 0.016 µM.
For the compound `CCn1cc(-c2ccccc2)nc1C(=O)c1cc(OC)c(OC)c(OC)c1` [70n, (1-ethyl-4-phenyl-1H-imidazol-2-yl)(3,4,5-trimethoxyphenyl)methanone], the IC50 turned out to be 0.025 µM.
With `COc1cc(C(=O)c2nc(-c3ccccc3)cn2Cc2ccccc2)cc(OC)c1OC` [70o, (1-benzyl-4-phenyl-1H-imidazol-2-yl)(3,4,5-trimethoxyphenyl)methanone], the IC50 is 0.072 µM.
For the compound `COc1cc(C(=O)c2nc(-c3ccccc3)cn2C2CCCC2)cc(OC)c1OC` [70p, (1-cyclopentyl-4-phenyl-1H-imidazol-2-yl)(3,4,5-trimethoxyphenyl)methanone], the IC50 was found to be 0.056 µM.

Still in this experiment, the particulars now being: Table 13B; read-out: inhibitory effects PC3.
As to “4-Methoxyphenyl(4-(3,4,5-trimethoxyphenyl)-1H-imidazol-2-yl)methanone and 4-methoxyphenyl(5-(3,4,5-trimethoxyphenyl)-1H-imidazol-2-yl)methanone [70y]”, the IC50 stood at 10.4 µM.

The next experiment deals with LNCaP. The experiment in a line: SRB cytotoxicity assay, LNCaP prostate cancer cells. Type of experiment: cell-based, human. The conditions noted are these: Homo sapiens, LNCaP; Table 6A; read-out: IC50 LNCaP.
Excerpt: as §1
As to `COc1cc(C(=O)c2csc(-c3ccccc3)n2)cc(OC)c1OCc1ccccc1` [compound 9], the IC50 is roughly 10 µM.
As for `Cc1ccc(-c2nc(C(=O)c3ccc(F)cc3)cs2)cc1` [compound 11], the IC50 is greater than 10 µM.
As to `O=C(c1ccc(F)cc1)c1csc(-c2ccccc2)n1` [compound 12], the IC50 is greater than 10 µM.
`O=C(c1ccc(OC(F)(F)F)cc1)c1csc(-c2ccccc2)n1` [compound 13]: the IC50 is greater than 10 µM.
On to `O=C(c1ccc(F)cc1)c1csc(-c2ccc(F)cc2)n1` [compound 14], for which the IC50 is greater than 10 µM.
On to `O=C(c1csc(-c2cc(F)c(F)c(F)c2)n1)c1c(F)c(F)c(F)c(F)c1F` [compound 16], for which the IC50 was greater than 10 µM.
In the case of `COc1cc(C(=O)c2csc(-c3ccccc3)n2)cc(OC)c1OC(=O)CCl` [compound 18], the IC50 was roughly 10 µM.
With `O=C(c1ccc2c(c1)OCO2)N1CCC(c2ccccc2)CC1` [compound 19], the IC50 is greater than 20 µM.
Consider `O=C(c1ccc(F)cc1)N1CCC(c2ccccc2)CC1` [compound 22], for which the IC50 was greater than 20 µM.
As for `COc1cc(C(=O)c2csc(-c3ccccc3)n2)cc(OC)c1OC(=O)C(F)(F)F` [compound 23], the IC50 is roughly 10 µM.
The same measure, in the same setting: the value for `COc1cc(-c2nc(C(=O)c3ccc(F)cc3)cn2C(=O)c2ccc(F)cc2)cc(OC)c1OC` [compound 30] was greater than 10 µM; that for `O=C(c1cc(O)c(O)c(O)c1)c1csc(-c2ccccc2)n1` [compound 33] was greater than 2 µM.

The same experiment, now with this note: Table 13B; read-out: inhibitory effects LNCaP.
For the compound “4-Methoxyphenyl(4-(3,4,5-trimethoxyphenyl)-1H-imidazol-2-yl)methanone and 4-methoxyphenyl(5-(3,4,5-trimethoxyphenyl)-1H-imidazol-2-yl)methanone [70y]”, the IC50 was determined as 0.709 µM.

A further experiment relates to PPC-1. The experiment in a line: SRB cytotoxicity assay, PPC-1 prostate cancer cells. Type of experiment: cell-based, human. The conditions noted are these: Homo sapiens, PPC-1; Table 6A; read-out: IC50 PPC-1.
Excerpt: as §1
For `Cc1ccc(-c2nc(C(=O)c3ccc(F)cc3)cs2)cc1` [compound 11], the IC50 was roughly 10 µM.

Staying with this experiment, now noted: Table 13B; read-out: inhibitory effects PPC1.
Regarding “4-Methoxyphenyl(4-(3,4,5-trimethoxyphenyl)-1H-imidazol-2-yl)methanone and 4-methoxyphenyl(5-(3,4,5-trimethoxyphenyl)-1H-imidazol-2-yl)methanone [70y]”, the IC50 came to 5.69 µM.

In the next experiment the test system is melanoma and prostate cancer cell lines. The experiment in a line: SRB cytotoxicity, summary or average over melanoma and prostate cancer cell lines.
Settings: not given
Format: cell-based.
Regarding `COc1cc(C(=O)c2cccc(-c3ccccc3)c2)cc(OC)c1OC` [1a, Biphenyl-3-yl(3,4,5-trimethoxyphenyl)methanone], the “antiproliferative activity in words” value is recorded as “hundreds of nanomolar range”.
`COc1cc(C(O)c2csc(-c3ccccc3)n2)cc(OC)c1OC` (stereo not shown) [2b, (2-Phenylthiazol-4-yl)(3,4,5-trimethoxyphenyl)methanol]: the “antiproliferative activity in words” value was “inactive”.
On to `CNCc1ccc(-c2nc(C(=O)c3cc(OC)c(OC)c(OC)c3)cs2)cc1.Cl` [2s, (2-(4-((Methylamino)methyl)phenyl)thiazol-4-yl)(3,4,5-trimethoxyphenyl)methanone hydrochloride], for which the “antiproliferative activity in words” value is “abrogated activity”.
Take `COc1cc(C(=O)c2csc(-c3ccc(CN(C)C)cc3)n2)cc(OC)c1OC.Cl` [2u, (2-(4-((Dimethylamino)methyl)phenyl)thiazol-4-yl)(3,4,5-trimethoxyphenyl)methanone hydrochloride]: the “antiproliferative activity in words” value was “abrogated activity”.
In the case of `COc1cc(/C=C\c2csc(-c3ccccc3)n2)cc(OC)c1OC` [3a, (Z)-2-Phenyl-4-(3,4,5-trimethoxystyryl)thiazole], the “antiproliferative activity in words” value is listed as “lost activity”.
Consider `COc1cc(C(=O)[C@H]2COC(c3ccccc3)=N2)cc(OC)c1OC` [35a, (2R)-(2-Phenyl-4,5-dihydro-oxazol-4-yl)-(3,4,5-trimethoxy-phenyl)-methanone], for which the “antiproliferative activity in words” value is “hundreds of nanomolar range”.
Regarding `COc1cc(C(=O)c2coc(-c3ccccc3)n2)cc(OC)c1OC` [36a, (2-Phenyl-oxazol-4-yl)-(3,4,5-trimethoxy-phenyl)-methanone], the “antiproliferative activity in words” value is reported as “hundreds of nanomolar range”.

The experiment is the same for the next values; noted with them: 2e-cis vs 2e-trans; 12jb vs 12kb.
Consider `O=C(c1ccc(F)cc1)c1c[nH]c(-c2ccc(OCc3ccccc3)cc2)n1` [12jb, (2-(4-(benzyloxy)phenyl)-1H-imidazol-4-yl)(4-fluorophenyl)methanone], for which the “fold more activity than the comparator” value is 440 fold.

The experiment is the same for the next values; noted with them: average of all seven cell lines.
`Cc1ccc(-c2nc(C(=O)c3ccc(F)cc3)cn2S(=O)(=O)c2ccccc2)cc1` [11db, (4-fluorophenyl)(1-(phenylsulfonyl)-2-(p-tolyl)-1H-imidazol-4-yl)methanone] gave an IC50 of 0.111 µM.
`COc1cc(C(=O)c2cn(S(=O)(=O)c3ccccc3)c(-c3ccc(N(C)C)cc3)n2)cc(OC)c1OC` [11ga, (2-(4-(dimethylamino)phenyl)-1-(phenylsulfonyl)-1H-imidazol-4-yl)(3,4,5-trimethoxyphenyl)methanone] showed an IC50 of 0.285 µM.
`CN(C)c1ccc(-c2nc(C(=O)c3ccc(F)cc3)cn2S(=O)(=O)c2ccccc2)cc1` [11gb, (2-(4-(dimethylamino)phenyl)-1-(phenylsulfonyl)-1H-imidazol-4-yl)(4-fluorophenyl)methanone] had an IC50 of 0.087 µM.
As to `COc1ccc(-c2nc(C(=O)c3cc(OC)c(OC)c(OC)c3)cn2S(=O)(=O)c2ccccc2)cc1OC` [11ha, (2-(3,4-dimethoxyphenyl)-1-(phenylsulfonyl)-1H-imidazol-4-yl)(3,4,5-trimethoxyphenyl)methanone], the IC50 was determined as 0.268 µM.
As for `COc1cc(OC)cc(C(=O)c2c[nH]c(-c3ccccc3)n2)c1` [12ad, (3,5-dimethoxyphenyl)(2-phenyl-1H-imidazol-4-yl)methanone], the IC50 worked out at 3.1 µM.
Still for that read-out and setting: the value for `O=C(c1ccc(F)cc1)c1c[nH]c(-c2ccccc2)n1` [12af, (4-fluorophenyl)(2-phenyl-1H-imidazol-4-yl)methanone] was 0.91 µM; that for `Cc1ccc(-c2nc(C(=O)c3ccc(F)cc3)c[nH]2)cc1` [12db, (4-fluorophenyl)(2-(p-tolyl)-1H-imidazol-4-yl)methanone] was 0.109 µM.
Compound `COc1cc(C(=O)c2c[nH]c(-c3ccc(OCc4ccccc4)cc3)n2)cc(OC)c1OC` [12ja, (2-(4-(benzyloxy)phenyl)-1H-imidazol-4-yl)(3,4,5-trimethoxyphenyl)methanone] returned an IC50 of 7.3 µM.
The compound `O=C(c1ccc(F)cc1)c1c[nH]c(-c2ccc(OCc3ccccc3)cc2)n1` [12jb, (2-(4-(benzyloxy)phenyl)-1H-imidazol-4-yl)(4-fluorophenyl)methanone] registered an IC50 of 0.075 µM.
Compound `O=C(c1cc(O)c(O)c(O)c1)c1c[nH]c(-c2ccc(Cl)cc2)n1` [13fa, (2-(4-chlorophenyl)-1H-imidazol-4-yl)(3,4,5-trihydroxyphenyl)methanone] came in with an IC50 of 3.89 µM.
